# What was measured:
# [1] = test system: Staphylococcus epidermidis; assay: Antibacterial activity against Staphylococcus epidermidis isolate after 24 hrs by agar dilution method; assay type: functional
# Escherichia coli = assay: Antibacterial activity against Escherichia coli ATCC 25922 after 24 hrs by agar dilution method; assay type: functional; details: ATCC 25922, 24 h
# [2] = test system: Salmonella enterica subsp. enterica; assay: Antibacterial activity against Salmonella enteritidis isolate after 24 hrs by agar dilution method; assay type: functional, Salmonella enterica subsp. enterica serovar Enteritidis
# Klebsiella pneumoniae = assay: Antibacterial activity against Klebsiella pneumoniae isolate after 24 hrs by agar dilution method; assay type: functional
# Lacticaseibacillus casei = assay: Antibacterial activity against Lactobacillus casei isolate after 24 hrs by agar dilution method; assay type: functional
# Staphylococcus aureus = assay: Antibacterial activity against Staphylococcus aureus ATCC 25923 after 24 hrs by agar dilution method; assay type: functional; details: ATCC 25923, 24 h
# Klebsiella aerogenes = assay: Antibacterial activity against Enterobacter aerogenes isolate after 24 hrs by agar dilution method; assay type: functional
# Pseudomonas aeruginosa = assay: Antibacterial activity against Pseudomonas aeruginosa ATCC 27853 after 24 hrs by agar dilution method; assay type: functional; details: ATCC 27853, 24 h
compound,measurement,setting,value
CCCCC[C@@H]1C[C@@H](O)CC(=O)O[C@H](CCCCC)C[C@@H](O)CC(=O)O1 [VERBALACTONE],MIC,[1],62.5 µg/mL
same,MIC,Escherichia coli,250 µg/mL
same,MIC,[2],125 µg/mL
same,MIC,Klebsiella pneumoniae,250 µg/mL
same,MIC,Lacticaseibacillus casei,> 125 µg/mL
same,MIC,Staphylococcus aureus,62.5 µg/mL
same,MIC,Klebsiella aerogenes,> 500 µg/mL
same,MIC,Pseudomonas aeruginosa,500 µg/mL

# — ChEMBL document CHEMBL1155753, “Verbalactone, a new macrocyclic dimer lactone from the roots of Verbascum undulatum with antibacterial activity” (2001)
